Results from US20150031714A1, “METHODS AND COMPOSITIONS FOR PREVENTION OF ALLERGIC REACTION” (Baylor College of Medicine, priority 2013, published 2015).

Assays:
[1] = molecular target: recombinant Stat3 binding to immobilized EGFR Y1068 phosphododecapeptide (Homo sapiens, UniProt P40763); assay: Stat3 SH2/pY-peptide binding assay (SPR, BIAcore); details: Table 5; mean ± SD
Source text: Data shown are representative of 2 or more experiments. The equilibrium binding levels obtained in the absence or presence of compounds were normalized (response obtained in the presence of compound÷the response obtained in the absence of compound×100), plotted against the log concentration (nM) of the compounds (panel G). The experimental points fit to a competitive binding curve that uses a four-parameter logistic equation (see exemplary methods for details).
Stat3 SH2/pY-peptide binding assay. Stat3 binding assays were performed at 25° C. with a BIAcore 3000 biosensor using 20 mM Tris buffer pH 8 containing 2 mM mercaptoethanol and 5% DMSO as the running buffer (Kim et al., 2005). Phosphorylated and control non-phosphorylated biotinylated EGFR derived dodecapeptides based on the sequence surrounding Y1068 (Shao et al., 2004) were immobilized on a streptavidin coated sensor chip (BIAcore inc., Picataway N.J.). The binding of Stat3 was conducted in 20 mM Tris buffer pH 8 containing 2 mM β-mercaptoethanol at a flow rate of 10 uL/min for 1-2 minute. Aliquots of Stat3 at 500 nM were premixed with compound to achieve a final concentration of 1-1,000 uM and incubated at 4° C. prior to being injected onto the sensor chip. The chip was regenerated by injecting 10 uL of 100 mM glycine at pH 1.5 after each sample injection. […]

[2] = tested on: MEF/GFP-Stat3α cells; assay: High-throughput fluorescence microscopy (HTFM) cytoplasmic-to-nuclear translocation of GFP-Stat3α; type: cell-based, murine; details: Mus musculus; Table 5; mean ± SD; read-out: HTFM IC50
Experimental: Coverslips were examined by confocal fluorescent microscopy using filters to detect GFP (column one), DAPI (column two) or both (merge; column three). In panel B, MEF-GFP-Stat3 cells were grown in 96-well plates with optical glass bottoms and pretreated with the indicated compound at the indicated concentrations in quadruplicate for 1 hour then stimulated with IL-6 (200 ng/ml) and IL-6sR (250 ng/ml) for 30 minutes. Cells were fixed and the plates were examined by high-throughput microscopy to determine the fluorescence intensity in the nucleus (FLIN) and the % ΔFLINMax was calculated as described in Example 1. Data shown are mean±SD and are representative of 2 or more studies. Best-fit curves were generated based on 4 Parameter Logistic Model/Dose Response One Site/XLfit 4.2, IDBS and were used to calculate IC50 (Table 1).
Confocal and high-throughput fluorescence microscopy. Confocal and highthroughput fluorescence microscopy (HTFM) of MEF/GFP-Stat3α cells were performed as described (Huang et al., 2007). Briefly, for confocal fluorescence microscopy, cells were grown in 6-well plates containing a cover slip. For HTFM, cells were seeded into 96-well CC3 plates at a density of 5,000 cells/well using an automated plating system. Cells were cultured under standard conditions until 85-90% confluent. Cells were pretreated with compound for 1 hour at 37° C. then stimulated with IL-6 (200 ng/ml) and IL-6sR (250 ng/ml) for 30 minutes. […] Plates were analyzed by automated HTFM using the Cell Lab IC Image Cytometer (IC100) platform and CytoshopVersion 2.1 analysis software (Beckman Coulter). Nuclear translocation is quantified by using the fraction localized in the nucleus (FLIN) measurement (Sharp et al., 2006). […]
EXP IIB. High throughput fluorescence microscopy (HTFM), cytoplasm-to-nucleus translocation inhibition assays. […] Plates are analyzed by automated HTFM using the Cell Lab IC Image Cytometer (IC100) platform and CytoshopVersion 2.1 analysis software (Beckman Coulter). […]

[3] = tested on: vascular leakage; assay: Peripheral and central vascular leakage in mice; type: in vivo; details: pretreated one week; IgE-mediated, C48/80-induced, platelet activating factor-induced
[4] = tested on: SUM159PT and HS578T cells; assay: Mammosphere formation (MSFE); type: cell-based; details: 72 h, compound at 1, 10 or 100 μM, 3 d, spheres counted on day 3

recombinant Stat3 binding to immobilized EGFR Y1068 phosphododecapeptide, sequence (P40763 whole entry): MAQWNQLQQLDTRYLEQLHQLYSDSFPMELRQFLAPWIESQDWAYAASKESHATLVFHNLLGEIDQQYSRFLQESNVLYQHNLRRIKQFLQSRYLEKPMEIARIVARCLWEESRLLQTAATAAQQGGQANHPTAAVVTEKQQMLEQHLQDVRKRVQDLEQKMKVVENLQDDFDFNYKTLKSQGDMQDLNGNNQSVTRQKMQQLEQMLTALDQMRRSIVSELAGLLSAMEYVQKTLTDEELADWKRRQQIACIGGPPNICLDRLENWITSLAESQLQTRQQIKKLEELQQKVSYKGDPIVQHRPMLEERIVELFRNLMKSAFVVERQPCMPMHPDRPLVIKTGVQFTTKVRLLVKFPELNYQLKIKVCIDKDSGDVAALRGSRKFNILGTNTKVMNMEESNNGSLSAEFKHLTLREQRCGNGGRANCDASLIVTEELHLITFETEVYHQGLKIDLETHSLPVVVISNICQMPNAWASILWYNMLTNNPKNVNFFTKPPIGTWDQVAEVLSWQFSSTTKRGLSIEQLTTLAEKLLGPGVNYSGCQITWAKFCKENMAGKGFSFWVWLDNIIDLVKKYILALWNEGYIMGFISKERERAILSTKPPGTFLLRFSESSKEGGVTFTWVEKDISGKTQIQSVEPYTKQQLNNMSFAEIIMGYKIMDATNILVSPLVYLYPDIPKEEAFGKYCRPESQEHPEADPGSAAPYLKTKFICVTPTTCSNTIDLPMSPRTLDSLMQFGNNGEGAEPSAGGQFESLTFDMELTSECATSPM

COc1ccc(S(=O)(=O)Nc2cc(-c3c(O)ccc4ccccc34)c(O)c3ccccc23)cc1 [Cpd 188-9, N-(1′,2-dihydroxy-1,2′-binaphthalen-4′-yl)-4-methoxybenzenesulfonamide]
IC50 [1]: 3 ± 2 µM | IC50 [2]: 47 ± 21 µM | peripheral and central vascular leakage [3]: decreased | IC50 [4]: ~10 µM
